Values of other authors, collected in patent US5516921A, “Thiono-lactone inhibitors of protein trafficking and uses therefor” (Ariad Pharmaceuticals, Inc., priority 1994, dated 1996).

Columns and labels:
[1] = in vivo
[2] = test system: β-COP

SMILES: C[C@H]1CCC/C=C/[C@@H]2C[C@H](O)C[C@H]2[C@H](O)/C=C/C(=O)O1 [BFA, Brefeldin A]
- biological half-life [1]: short
- time at which release of β-COP from the Golgi is complete ([2]; complete release after BFA treatment): 1 to 2 min
- time at which release of β-COP from the Golgi occurs after treatment ([2]; onset of release after BFA treatment): ≤ 20 s
